From patent US20220226357A1, “METHODS FOR TREATING NEURODEGENERATIVE DISORDERS” (THOMAS JEFFERSON UNIVERSITY, priority 2019, published 2022) come the findings set out here.

The subject of test [1] is AAV-A53T α-synuclein rat model. Put plainly: Size of α-synuclein-positive aggregates in the striatum. In kind it is in vivo. Particulars: for maximum aggregate size measured: striatum. The text has this: Fixed tissue blocks were immersed in 30% sucrose for cryoprotection and sectioned frozen on a sliding microtome (30 μm section thickness for striatal sections; 40 μm section thickness for SN sections). Sections through the rostro-caudal extent of the SN were collected and every sixth section from the SN was processed for tyrosine hydroxylase (TH) immunohistochemistry to be used for stereological cell counting. Three striatal sections from approximately the level of the decussation of the anterior commissure in each case were processed for α-synuclein immunohistochemistry. For immunohistochemistry, sections were washed and permeabilized with PBS containing 0.2% Triton X-100. Endogenous peroxidase activity was quenched using 3% hydrogen peroxide in PBS containing 0.2% Triton X-100. Sections were then blocked in PBS/triton X-100 containing 10% normal goat serum and 2% BSA, followed by primary antibody incubation (TH (rabbit anti-TH, 1:2,000, Pel-Freez); α-synuclein (mouse anti-α-synuclein clone 211; 1:2000, Millipore) overnight at 4° C. The following day, sections were washed in PBS and incubated in biotinylated secondary antibody (goat-anti-rabbit 1:4000 for TH; goat-anti-mouse 1:2000 for α-synuclein 1:2000, VECTOR Laboratories), followed by additional washes and incubation in avidin biotin complex (VECTASTAIN Elite ABC system, VECTOR Laboratories). The reaction product was visualized with 3,3′-diaminobenzidine (DAB) (Immpact DAB, VECTOR Laboratories). Sections were then mounted, dehydrated, cleared and coverslipped. Sections stained for visualization of TH and to be used for stereological cell counting were counterstained with cresyl violet prior to coverslipping. […] Slides were coded and analyzed blindly. […] Cells were then counted at high power (100×) using a counting frame measuring 60 μm^2. […] This process was repeated for each section in the series for a given animal, and a total of 7-8 sections/animal were analyzed. Nissl-stained cells were counted concurrently in the same sections using the same sampling parameters. […]
Immunoblotting for α-synuclein expression was performed using the Wes western blot system (ProteinSimple). […] The sizes of α-synuclein-positive swelling/aggregates were measured in 3 fields (one medial, one central and one lateral) from 1 coronal section (at the approximate level of the decussation of the anterior commissure). Photographs were captured using a 40× objective on a Nikon Eclipse Ni microscope and α-synuclein-positive structures with an area >5 μm2 were considered as aggregates and were measured using Nikon MS Elements AR software. Data are presented as the distribution of aggregate sizes in the three striatal regions measured.

In test [2] the test system is AAV-A53T α-synuclein rat model. As to the kind of experiment: Insoluble pSer129 α-Syn immunofluorescence in SN after proteinase K. In kind it is in vivo. The note with it: GM1 30 mg/kg/day i.p. for 2 wks, starting 24 hrs after AAV-A53T. The text has this: However, GM1 administration may affect α-Syn phosphorylation and aggregation in vivo. Some studies have reported that in vitro, GM1 and α-Syn interact, resulting in an absence of fibril formation and an increase in helical folding propensity, resulting in GM1-mediated protection against aggregation. […] It was proposed herein that a mechanism that underlies the ability of GM1 to reduce α-Syn-related neurotoxicity is that GM1 administration reduces α-Syn phosphorylation and thus aggregation, and toxicity, in vivo. […] Beginning 24 hours after AAV administration, some animals received daily i.p. injections of saline and others received daily i.p. injections of GM1 (30 mg/kg). Animals were euthanized 2 weeks following initiation of saline or GM1 administration. Brains were subsequently sectioned and SN sections were treated with proteinase K and then processed for pSer129 α-Syn immunofluorescence.

Setting [3] is: delayed start GM1 (3 weeks after AAV-A53T).
[4] abbreviates: early start GM1 (24 hours after AAV-A53T).

“Also recorded” adds a separate entry of the source.

For the substance GM1 ganglioside, in test [1] (setting [3]), the “size distribution of striatal α-synuclein-positive aggregates, GM1 vs saline” value was “greater numbers of larger sized aggregates in the saline-treated group compared to the GM1 group” and the “maximum aggregate size measured” value is 29.3 μm^2. In addition, in test [1] (setting [4]), the “size distribution of striatal α-synuclein-positive aggregates, GM1 vs saline” value was “larger numbers of smaller sized aggregates and fewer larger sized aggregates”; the “maximum aggregate size measured” value came to 28.8 μm^2. In addition, in test [2], the “insoluble pSer129 α-Syn-positive cells and pSer129 α-Syn per cell in the SN, GM1 vs saline” value is “significantly fewer pSer129 α-Syn-positive cells and less pSer129 α-Syn per cell; also recorded: fewer SN neurons expressing insoluble pSer129 and decreased pSer129 expression per neuron”.
